Assay results taken from patent US20080213183A1, “Free or Liposomal Gemcitabine Alone or in Combination with Free or Liposomal Idarubicin” (priority 2004, published 2008).
Structures can show the parent of a compound that is named as a salt. Where two headings read alike, the source gives them in different places. Marks after values point to notes of the source that are not given here.

How the values were obtained:
[1] = system: P388 lymphocytic leukemia cells; assay: MTT cytotoxicity assay with median effects (Chou and Talalay) analysis; assay type: cell-based, murine; conditions: for IC50 / IC90: Mus musculus; for IC50: P388, 72 h, read-out: IC50 (concentration required to achieve 50% cell kill); for IC90: P388, read-out: IC90 drug concentration (90% cell kill)
Procedure: For in vitro analysis, P388 wild type and doxorubicin resistant (ADR) cells were obtained from the National Cancer Institute tissue repository (Bethesda, Md., USA) and were propagated in vivo. In brief, one vial of frozen ascites was removed from the nitrogen tank and thawed at 37° C. and cells were injected i.p. into female BDF-1 mice (6-8 weeks old, 20-22 g, Charles River Laboratories, St. Constant, QC, Canada). Transfer mice were euthanized and a peritoneal lavage was performed. With a 1 cc syringe with 20 gauge needle, 0.5-1.0 ml of peritoneal fluid was removed and aliquotted into a 15 ml falcon tube containing 5 ml of Hank's Balanced Salt Solution (HBSS, no calcium or magnesium). 0.5 ml aliquot was transferred into another 15 ml conical sterile tube containing 5 ml HBSS. The cells were exposed to plastic culture wear (for adherence of monocytes) and Ficoll-Paque density centrifugation (red blood cell removal). […] For each passage, 2 female BDF-1 mice were injected with 1×10^6 cells in 0.5 ml (2×10^6 cells/ml) of P388 cell suspension intraperitoneally. This was repeated every 6-8 days to a maximum of 20 passages. Cells adequate for animal experiments were used between the 3rd-20th passage. For tissue culture experiments such as MTT cytotoxicity assays, P388 cells were obtained following peritoneal lavage and treatment to remove red blood cells and peritoneal macrophages. […] In order to assess cytotoxicity the MTT (3-(4,5-dimethylthiazol-2-yl)-2,5-diphenyl tetrazolium bromide) assay was utilized. […] The wells in the perimeter of the 96 well microtiter plates contained 0.2 ml sterile water. […] Control wells consisted of media only (200 μl/well), or cells and media (no treatment). There were 6 replicates (per plate) for all control and treatment groups). […] The media was aspirated off and 0.15 ml DMSO was added per well and resuspended on a plate shaker (5-10 min). […] The cytotoxicity upon drug exposure was quantified by expressing the percent cell viability for each treatment relative to untreated control cells (% control). […] This was further analyzed by the median effects principle by Chou and Talalay, cited above. The method by Chou and Talalay was used to distinguish between synergy, antagonism and additive effects of combined drug treatments from in vitro MTT cytotoxicity assays. This method, now provided in a software package (Calculsyn; Biosoft, Cambridge, UK), derives a median effects equation (1) to correlate drug dose and effect. Fixed ratio combinations of idarubicin and gemcitabine were initially selected on the basis of IC50 of each drug. […] Data were reported as mean±S.D. from three separate experiments, performed in triplicate.

[2] = Plasma elimination of free and liposomal gemcitabine; assay type: in vivo, Balb/c mice; conditions: 33 μmole gemcitabine/kg i.v.
Procedure: Pharmacokinetic Analysis: Balb/c mice breeders, 20-22 g, were purchased from Charles River Laboratories (St. Constant, QC, Canada) and bred in-house. Mice were housed in micro-isolator cages and given free access to food and water. All animal studies were conducted according to procedures approved by the University of British Columbia's Animal Care Committee and in accordance with the current guidelines established by the Canadian Council of Animal Care.
The plasma elimination of idarubicin and gemcitabine containing tracer quantities of 3[H]-gemcitabine was assessed. Mice were injected with 33 μmoles/kg drug administered intravenously into the lateral tail vein of Balb/c mice. At various time points up to 4 hours post drug administration, blood was collected by tail nick (collected in microfuge tubes) or cardiac puncture (collected in liquid EDTA coated tubes), centrifuged at 1000 g to isolate the plasma fraction. The plasma was placed in a separate microfuge tube and vortexed to ensure a homogenous distribution.
The tail nick procedure for obtaining blood samples was used to minimize the number of mice sacrificed. In this way, three blood samples could be obtained from a single mouse within a 24 hour time interval. In brief, the lateral tail vein of mice was nicked with a small sharp blade. A 25 μl glass pipette, pre-washed with EDTA, was used to withdraw blood. The blood was expelled into a microfuge tube containing 200 μl of 5% (wt/vol) EDTA and thoroughly mixed. Blood/EDTA samples were centrifuged for 10 minutes at 1000 g. The supernatant was transferred to a 1.5 ml microfuge tube. 250 μl Hank's balanced salt solution (HBSS) was added to the pellet, resuspended and centrifuged for 10 minutes at 1000 g. The supernatants were mixed together. Assuming a 48% hematocrit for a 20 gram Balb/c mice, approximately 13 μl plasma was obtained from a 25 μl blood sample. From the recovered plasma samples, aliquots were used to measure drug (and or lipid) concentrations.
The plasma elimination of liposomal drugs containing doxorubicin, daunorubicin, idarubicin, or gemcitabine samples administered intravenously into the lateral tail vein of Balb/c female mice was assessed. Mice were injected with 33 μmole/kg drug and 165 μmole/kg lipid. For liposomal gemcitabine samples, mice were injected with 33 μmole/kg gemcitabine at an approximate 0.1 drug-to-lipid mole ratio). At various time points post drug administration, blood was collected by tail nick or cardiac puncture. Plasma lipid and 3[H]-gemcitabine were quantified by liquid scintillation counting. Anthracyclines were extracted from plasma with a partitioning assay, followed by fluorescence spectrometer detection.
The plasma elimination data was modeled using WinNonlin (version 1.5) pharmacokinetic software (Pharsight Corporation, Mountain View, Calif., USA) to calculate pharmacokinetic parameters. […] The mean plasma AUC for a defined time interval was determined from the concentration-time curves and subsequent calculation by the standard trapezoidal rule.
Liposome mediated increases in gemcitabine blood residence time were also evaluated as follows: Free and liposomal gemcitabine formulations were administered to female Balb/c mice at a dose of 33 μmole gemcitabine/kg (9.9 mg/kg) and 165 μmole total lipid/kg.

[3] = Dose range finding, maximum tolerable dose; assay type: in vivo; conditions: no significant toxicity for 30 days
Procedure: Dose range finding studies of free and liposomal idarubicin and/or gemcitabine were performed in non-tumor bearing female BDF-1 mice. Mice were weighed daily and monitored for signs of stress or toxicity (e.g., lethargy, scruffy coat, ataxia).

[4] = system: P388 tumors
Procedure: For in vivo testing of antitumor activity was evaluated in P388 lymphocytic leukemia model.
Treatments commenced 24 hours post tumor cell inoculation. Treatment groups consisted of saline (control) and 0.5, 1, 2 and 3 mg/kg doses of free or liposomal idarubicin administered as a single i.v. bolus injection and between 100 to 500 mg/kg gemcitabine and 1 to 5 mg/kg liposomal gemcitabine (selected on the basis of dose range finding studies). Fixed dose ratios for combination treatments were defined on the basis of 0.66 MTD when used as a single agent. […] Median survival and percent weight loss was determined for each treatment.
All data values are reported as mean±standard deviation (S.D.). A standard one-way analysis of variance (ANOVA) was used to determine statistically significant differences of the means. For multiple comparisons, post-hoc analysis using the Tukey-Kramer test. Survival curves were computed using the Kaplan-Meier method. […] Treatment groups were subsequently analyzed using SPSS statistics software (SPSS Inc., Chicago, Ill., USA) and compared using a two sample log-rank test. P<0.05 was considered significant for all statistics tests.

[5] = system: non small cell lung cancer; conditions: cited from earlier work
[6] = at IC90, GEM/IDA 1:1 fixed molar ratio
[7] = at IC90, GEM/IDA 1:10 fixed molar ratio
[8] = female, Balb/c, mouse, iv, 33 μmole/kg, plasma

Nc1ccn([C@@H]2O[C@H](CO)[C@@H](O)C2(F)F)c(=O)n1 [GEM, gemcitabine hydrochloride]
IC50 [1]: 0.26 nM | IC90 [1]: 0.9 nM | dose reduction index (DRI) [1, 6]: 1.8 | dose reduction index (DRI) [1, 7]: 14 | fold more cytotoxic than idarubicin ([1]; from IC50): approximately 10 fold | AUC0-t ([2]; Tlast 4 hours): 0.1^b μmole · h · ml^−1 | AUMC ([2]; plasma): 0.3 μmole · h^2 · ml^−1 | MRT last [2, 8]: 3.1 h | clearance [2, 8]: 0.102 mL/min | half-life [2, 8]: 126 min | maximum tolerable dose [3]: 500 mg/kg | % ILS ([4]; GEM 100 mg/kg): 63% | % Weight Change, day 5 ([4]; GEM 100 mg/kg): 0.4% | Cell Kill ([4]; GEM 100 mg/kg): 2.9 LOG10 | MST ([4]; GEM 100 mg/kg): 13 days | Survivors ([4]; GEM 100 mg/kg): 0/6 | % ILS ([4]; GEM 200 mg/kg): 81% | % Weight Change, day 5 ([4]; GEM 200 mg/kg): 3.0% | Cell Kill ([4]; GEM 200 mg/kg): 3.7 LOG10 | MST ([4]; GEM 200 mg/kg): 14.5 days | Survivors ([4]; GEM 200 mg/kg): 0/6 | % ILS ([4]; GEM 300 mg/kg): 81% | % Weight Change, day 5 ([4]; GEM 300 mg/kg): 2.3% | Cell Kill ([4]; GEM 300 mg/kg): 3.7 LOG10 | MST ([4]; GEM 300 mg/kg): 14.5 days | Survivors ([4]; GEM 300 mg/kg): 0/6 | % Weight Change, day 5 ([4]; GEM 400 mg/kg): 1.8% | Cell Kill ([4]; GEM 400 mg/kg): 4.0 LOG10 | MST ([4]; GEM 400 mg/kg): 15 days | Survivors ([4]; GEM 400 mg/kg): 0/6 | % ILS ([4]; GEM 400 mg/kg, hydrochloride): 88% | % ILS ([4]; GEM 400 mg/kg, listed as free gemcitabine, hydrochloride): 87.5% | % ILS ([4]; GEM 500 mg/kg): 75% | % Weight Change, day 5 ([4]; GEM 500 mg/kg): 0.0% | Cell Kill ([4]; GEM 500 mg/kg): 3.4 LOG10 | MST ([4]; GEM 500 mg/kg): 14 days | Survivors ([4]; GEM 500 mg/kg): 0/10 | maximum therapeutic dose ([4]; P388 model, single agent): 400 mg/kg | overall response rate ([5]; 800-1250 mg/m2, in combination with cisplatin): 50% | overall response rate ([5]; 800-1250 mg/m2, single agent): 20% | median survival ([5]; in combination with cisplatin): greater than 1 year

CC(=O)[C@]1(O)Cc2c(O)c3c(c(O)c2[C@@H](O[C@H]2C[C@H](N)[C@H](O)[C@H](C)O2)C1)C(=O)c1ccccc1C3=O [IDA, idarubicin hydrochloride]
IC50 [1]: 1.8 nM | IC90 [1]: 5.7 nM | dose reduction index (DRI) [1, 6]: 11.8 | dose reduction index (DRI) [1, 7]: 8.5 | fold reduction in concentration required ([1]; at IC90, GEM/IDA 10:1 fixed ratio): 180 fold | % ILS ([4]; IDA 0.5 mg/kg): 13% | % Weight Change, day 5 ([4]; IDA 0.5 mg/kg): 13.6% | Cell Kill ([4]; IDA 0.5 mg/kg): 0.6 LOG10 | MST ([4]; IDA 0.5 mg/kg): 9 days | Survivors ([4]; IDA 0.5 mg/kg): 0/12 | % ILS ([4]; IDA 1 mg/kg): 50% | % Weight Change, day 5 ([4]; IDA 1 mg/kg): 2.1% | Cell Kill ([4]; IDA 1 mg/kg): 2.3 LOG10 | MST ([4]; IDA 1 mg/kg): 12 days | Survivors ([4]; IDA 1 mg/kg): 0/12 | % ILS ([4]; IDA 2 mg/kg): 113% | % Weight Change, day 5 ([4]; IDA 2 mg/kg): −1.4% | Cell Kill ([4]; IDA 2 mg/kg): 5.1 LOG10 | MST ([4]; IDA 2 mg/kg): 17 days | Survivors ([4]; IDA 2 mg/kg): 1/12
